Key:
[1] = system: TGF-β, Smad 2/3, Smad 4, pSmad 2/3; test: TGF-β, Smad 2/3, Smad 4, pSmad 2/3 expression in fibroblasts (Western blot); type: cell-based, rat; conditions: 24 hours, 1 and 10 nM
Excerpt: To further examine the molecular mechanisms by which cardiotonic steroids induce collagen production in fibroblasts, we examined the effects of MBG on TGF-β expression, as well as the expression of Smad 2/3, Smad 4, and pSmad 2/3. […] Next, we examined whether TGF-β induced collagen production and whether there was synergism between TGF-β and MBG. […] However, it is important to point out that we never completely serum starve the primary cultures, and because serum is always present, some TGF-β is always present.
The effect of 24 hours of MBG (1 and 10 nM) on TGF-β, Smad 2/3, Smad 4, and pSmad 2/3 expression determined by Western blot. b and c, effects of 24 hours of MBG (10 nM), TGFβ(5 ng/mL), and the TGF-β receptor antagonist SB431542 ([…] on procollagen-1 expression (Western blot) and radiolabeled proline incorporation, respectively also were carried out. SB431542 was added 2 hours before exposure to either TGFβ or MBG (total of 26-hour exposure). Each bar represents the mean.+−.SEM of 6 to 8 determinations. *P<0.05, **P<0.01 vs. control.

[2] = system: SYF+Src line; test: In vitro wound healing (scrape injury) in SYF+Src fibroblasts; type: cell-based, mouse; conditions: 12 hour pretreatment
Procedure: Next, we examined whether wound healing might be advantageously impacted by cardiotonic steroids. We grew a mouse fibroblast cell line, the SYF+Src line to confluence and make injuries by scraping with a pipette tip.
Representative images from fibroblasts at 3, 7 and 12 hours following injury. Quantification of wound closure from fibroblast cultures. Data represents N=6 separate pairs of experiments, each of which involves 3 determinations at each time point. Data shown as mean+/−SEM. **<0.01. We proposed to enhance skin fibroblast collagen production by topical or injected administration of cardiotonic steroids and prevent or reverse aging related loss of skin tone.

[3] = system: fibroblast cell line; test: Procollagen expression in immortalized fibroblast cell line (Western blot); type: cell-based
Excerpt: We next examined whether skin fibroblasts lines had similar response. This was done with dermal fibroblasts kindly provided by Dr. Bashar Kahaleh. […] The magnitude of this response is illustrated by comparison to maximal doses of TGFβ, the “classic” stimulus for fibrosis (see below). In addition, we observed that an immortalized fibroblast line responded similarly to MBG, ouabain and digoxin.
Response of dermal fibroblasts to MBG as compared with TGF beta. Note that increase in collagen expression in MBG is approximately 10 fold with 5 or 10 nM MBG.

## C[C@]12CC[C@H](O)C[C@@]1(O)CC[C@@H]1[C@@H]2CC[C@]2(C)[C@@H](c3ccc(=O)oc3)C[C@H]3O[C@]132 [MBG, marinobufagenin]
[1]
  TGF-β, Smad 2/3, Smad 4, pSmad 2/3 expression in vitro: did not observe significant changes
[2]
  Closure of the experimental lesion: markedly accelerated
[3]
  Effect on fibroblast cell line expression of procollagen: Comparable effect
